Experimental data taken from US20080188562A1, “TREATING […] USING PRODRUGS OF […] PREGABALIN” (priority 2006, published 2008).

What was measured:
[1] = Randomized, crossover, fed/fasted single-dose pharmacokinetics study of oral sustained release tablets of compound (3); assay type: in vivo, human; settings: tablets 2×600 mg oral
Method: A randomized, crossover, fed/fasted single-dose study of the safety, tolerability, and pharmacokinetics of oral administration of 1-{[(α-isobutanoyloxyethoxy)carbonyl]aminomethyl}-1-cyclohexane acetic acid (3) in healthy adult subjects was conducted. The oral sustained release dosage form of Example 6 was used in this study. The study was designed to evaluate the performance of this formulation in humans in comparison with the commercial gabapentin capsule formulation (Neurontin®, Pfizer). Twelve healthy adult volunteers (7 males and 5 females) participated in the study. Mean body weight was 75.6 kg. All subjects received two different treatments in a random order with a one-week washout between treatments.
Blood and plasma samples were collected from all subjects prior to dosing, and at 0.5, 1, 1.5, 2, 3, 4, 6, 8, 12, 18, 24, and 36 hours after dosing. Urine samples were collected from all subjects prior to dosing, and complete urine output was obtained at the 0-4 h, 4-8 h, 8-12 h, 12-18 h, 18-24 h, and 24-36 h intervals after dosing. Blood samples were quenched immediately with methanol and stored frozen at <70° C. Sample aliquots were prepared for analysis of gabapentin and compound (3) using sensitive and specific LC/MS/MS methods.

[2] = system: acoustic trauma-induced tinnitus; settings: animals; Bauer and Brozoski 2001; cited from earlier work
tinnitus = settings: doses up to 2,400 mg/day; Bauer and Brozoski 2006; cited from earlier work
[3] = cited from earlier work

Row | Compound | AUC of compound (3) in blood as percent of corresponding AUC of gabapentin in blood ([1]; fasted) | Maximum concentration of intact compound (3) as percent of corresponding peak gabapentin concentration ([1]; fasted) | Maximum concentration of intact compound (3) in blood ([1]; fasted) | AUC of compound (3) in blood as percent of corresponding AUC of gabapentin in blood ([1]; fed) | Maximum concentration of intact compound (3) as percent of corresponding peak gabapentin concentration ([1]; fed) | Maximum concentration of intact compound (3) in blood ([1]; fed) | Attenuation of acoustic trauma-induced tinnitus [2] | Efficacy in treating tinnitus (tinnitus) | Typical Tmax of immediate release gabapentin [3]
1 | CC(OC(=O)NCC1(CC(=O)O)CCCCC1)OC(=O)C(C)C (stereo not drawn) [compound (3), 1-{[(α-Isobutanoyloxyethoxy)carbonyl]aminomethyl}-1-Cyclohexane Acetic Acid] | 0.3% | approximately 1.0% | 0.040 µg/mL | less than 0.1% | approximately 0.3% | 0.018 µg/mL |  |  | 
2 | NCC1(CC(=O)O)CCCCC1 [gabapentin] |  |  |  |  |  |  | effective in reversibly attenuating acoustic trauma-induced tinnitus in animals | effective in treating tinnitus | 2 to 4 h
